# Experimental data reported in patent publication US20260035384A1, “COMPOUND CONTAINING CYCLOHEXYL” (CHIA TAI TIANQING PHARMACEUTICAL GROUP CO., LTD., priority 2022, published 2026).
# Columns and labels:
# AR in VCaP cells = target: T1, AR in VCaP cells (Homo sapiens, UniProt P10275); assay: Assay on degradation activity for AR in VCaP cells (HTRF human androgen receptor detection kit); format: cell-based; conditions: 24 h incubation
# T1 construct: Assay on Degradation Activity for AR in VCaP Cells; endogenous in cells; host or cells: VCaP cells
# T1 sequence (P10275 1-920): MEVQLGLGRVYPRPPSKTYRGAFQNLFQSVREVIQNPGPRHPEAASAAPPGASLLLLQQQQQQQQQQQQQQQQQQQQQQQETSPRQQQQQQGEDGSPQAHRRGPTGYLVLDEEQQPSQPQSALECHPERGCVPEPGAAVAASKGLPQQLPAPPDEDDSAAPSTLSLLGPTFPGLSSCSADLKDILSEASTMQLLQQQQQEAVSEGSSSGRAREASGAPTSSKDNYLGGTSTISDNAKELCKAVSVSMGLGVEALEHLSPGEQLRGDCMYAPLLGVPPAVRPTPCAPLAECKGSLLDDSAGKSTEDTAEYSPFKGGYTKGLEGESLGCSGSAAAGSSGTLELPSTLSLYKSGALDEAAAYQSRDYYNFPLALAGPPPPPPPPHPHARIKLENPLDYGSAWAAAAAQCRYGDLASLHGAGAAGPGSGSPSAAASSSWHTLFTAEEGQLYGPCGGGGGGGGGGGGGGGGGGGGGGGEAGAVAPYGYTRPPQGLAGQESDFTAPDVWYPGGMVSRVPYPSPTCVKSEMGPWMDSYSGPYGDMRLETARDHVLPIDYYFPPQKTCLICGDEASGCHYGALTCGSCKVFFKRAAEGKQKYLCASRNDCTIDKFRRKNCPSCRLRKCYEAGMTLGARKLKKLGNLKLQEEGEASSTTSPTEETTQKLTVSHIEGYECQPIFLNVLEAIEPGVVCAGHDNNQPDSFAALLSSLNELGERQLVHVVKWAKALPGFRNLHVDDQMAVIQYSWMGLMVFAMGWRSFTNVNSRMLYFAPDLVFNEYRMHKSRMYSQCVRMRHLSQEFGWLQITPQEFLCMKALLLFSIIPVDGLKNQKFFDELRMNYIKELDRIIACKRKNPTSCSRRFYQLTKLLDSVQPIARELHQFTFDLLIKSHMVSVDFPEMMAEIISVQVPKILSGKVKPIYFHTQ
# Summary of the method: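 VCaP cells seeded overnight in 2% CSS-FBS phenol red-free DMEM, then treated 24 h with compound at 1000 nM–0.977 nM final, in duplicate. Lysates probed with AR Eu cryptate/d2 antibody HTRF (2 h, 25° C., 665/620 nm); DC50 and Dmax from four-parameter dose-response fits.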
# [1] = In vitro stability in liver microsome; format: in vitro ADME; conditions: human liver microsome 0.5 mg/mL, NADPH, 37° C.
smiles,measurement,setting,value
N#Cc1ccc(O[C@H]2CC[C@H](NC(=O)c3ccc(C4CCN(C5CN(c6cc7onc(C8CCC(=O)NC8=O)c7c7ccccc67)C5)CC4)nn3)CC2)cc1Cl (some centres unmarked) [Compound 48],DC50,AR in VCaP cells,≤ 1 nM
same,Human liver microsome Residuals at 60 min (%),[1],>85%
